# Measurements: patent US10040766B2, “Ubiquitination inhibitors” (Rigel Pharmaceuticals, Inc., priority 2014, dated 2018)
# Where two headings read alike, the source gives them in different places.
# Assays:
# [1] = target: Cks1-Skp2 protein-protein interaction (Homo sapiens, UniProt P61024+Q13309); test: Cks1-Skp2 protein-protein interaction ELISA; type: binding
# Source text: In vitro binding of Skp2 to Cks1 was established in an ELISA assay format, with Cks1 protein immobilized on a 384-well plate and binding of Skp1/Skp2 to Cks1 detected by anti-Skp2 immunoreaction.
# fibrosarcoma HT1080 = test: Inhibition of tumor cell growth, HT1080; type: cell-based
# [2] = system: lung tumor cell line A549; test: Inhibition of tumor cell growth, A549; type: cell-based
# [3] = sulfonamide analogues, Table 2, read-out: Potency in the Cks1-Skp2 interaction assay
# [4] = Table 3, read-out: IC50 Cks1-Skp2
# [5] = ELISA, Cks1 immobilized, Skp1/Skp2 binding detected by anti-Skp2, read-out: Cks1-Skp2 (μM), potency in the interaction assay
# Sequence of Cks1-Skp2 protein-protein interaction (P61024 whole entry): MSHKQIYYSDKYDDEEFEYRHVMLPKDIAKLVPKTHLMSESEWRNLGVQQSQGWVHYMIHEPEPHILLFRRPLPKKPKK
# Sequence of Cks1-Skp2 protein-protein interaction (Q13309 whole entry): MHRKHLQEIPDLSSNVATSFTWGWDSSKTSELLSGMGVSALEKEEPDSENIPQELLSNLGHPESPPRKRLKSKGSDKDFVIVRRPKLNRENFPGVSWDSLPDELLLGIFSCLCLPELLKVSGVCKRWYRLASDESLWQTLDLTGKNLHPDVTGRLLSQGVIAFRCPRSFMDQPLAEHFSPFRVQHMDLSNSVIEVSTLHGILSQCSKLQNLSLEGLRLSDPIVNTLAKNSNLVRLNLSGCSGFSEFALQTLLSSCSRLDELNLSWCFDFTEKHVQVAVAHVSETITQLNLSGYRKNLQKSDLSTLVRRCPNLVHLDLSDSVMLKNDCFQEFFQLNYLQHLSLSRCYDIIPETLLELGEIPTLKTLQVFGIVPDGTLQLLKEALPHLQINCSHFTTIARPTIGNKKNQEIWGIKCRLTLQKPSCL
"IC50 [1, 3] [µM]","IC50 [1, 4] [µM]",IC50 (fibrosarcoma HT1080) [nM],IC50 [2] [nM],"IC50 [1, 5] [µM]","IC50 (fibrosarcoma HT1080; Homo sapiens, HT-1080) [nM]",IC50 ([2]; Homo sapiens) [nM],Compound
7.6,,,,,,,"CC(=O)Nc1ccc(S(=O)(=O)Nc2ccc(-c3ccccc3)c3cccnc23)cc1 [Compound 20, N-(4-(N-(5-phenylquinolin-8-yl)sulfamoyl)phenyl)acetamide]"
,1.15,740,4090,1.15,,,"COc1ccc(Oc2cc(NS(=O)(=O)c3ccc(C)cc3)c3ncccc3c2)cc1 [Compound 13, N-(6-(4-methoxyphenoxy)quinolin-8-yl)-4-methylbenzenesulfonamide]"
2.2,,,,,,,"O=S(=O)(Nc1ccc(-c2ccccc2)c2cccnc12)c1cccnc1 [Compound 19, N-(5-phenylquinolin-8-yl)pyridine-3-sulfonamide]"
7.16,,,,,,,"O=S(=O)(Nc1ccc(-c2cccnc2)c2cccnc12)C1CC1 [Compound 22, N-(5-(pyridin-3-yl)quinolin-8-yl)cyclopropanesulfonamide]"
1.21,1.21,,,,1070,5880,"O=S(=O)(Nc1ccc(-c2ccncc2)c2cccnc12)c1cccnc1 [Compound 30, N-(5-(pyridin-4-yl)quinolin-8-yl)pyridine-3-sulfonamide]"
,5.54,,,5.54,640,2360,"Cc1ccc(S(=O)(=O)Nc2ccc(-c3ccsc3)c3cccnc23)cc1 [Compound 7, 4-methyl-N-(5-(thiophen-3-yl)quinolin-8-yl)benzenesulfonamide]"
10.9,,,,,,,"O=S(=O)(Nc1ccc(-c2ccncc2)c2cccnc12)C1CC1 [Compound 28, N-(5-(pyridin-4-yl)quinolin-8-yl)cyclopropanesulfonamide]"
0.17,0.17,,,,400,910,"O=S(=O)(Nc1ccc(-c2cccnc2)c2cccnc12)c1cccc(C(F)(F)F)c1 [Compound 24, N-(5-(pyridin-3-yl)quinolin-8-yl)-3-(trifluoromethyl)benzenesulfonamide]"
6.55,,,,,,,"CC(=O)Nc1ccc(S(=O)(=O)Nc2ccc(-c3ccncc3)c3cccnc23)cc1 [Compound 31, N-(4-(N-(5-(pyridin-4-yl)quinolin-8-yl)sulfamoyl)phenyl)acetamide]"
14.5,,,,,,,"CC(=O)Nc1ccc(S(=O)(=O)Nc2ccc(-c3cccnc3)c3cccnc23)cc1 [Compound 26, N-(4-(N-(5-(pyridin-3-yl)quinolin-8-yl)sulfamoyl)phenyl)acetamide]"
2.2,,,,,,,"CS(=O)(=O)Nc1ccc(-c2ccccc2)c2cccnc12 [Compound 15, N-(5-phenylquinolin-8-yl)methanesulfonamide]"
,7.84,,,7.84,150,390,"Cc1ccc(S(=O)(=O)Nc2ccc(-c3cc4ccccc4s3)c3cccnc23)cc1 [Compound 8, N-(5-(benzo[b]thiophen-2-yl)quinolin-8-yl)-4-methylbenzenesulfonamide]"
,0.55,,,0.55,9780,26000,"Cc1ccc(S(=O)(=O)Nc2ccc(-c3ccco3)c3cccnc23)cc1 [Compound 5, N-(5-(furan-2-yl)quinolin-8-yl)-4-methylbenzenesulfonamide]"
,1.73,,,1.73,4220,6020,"Cc1ccc(S(=O)(=O)Nc2ccc(-c3cccnc3)c3cccnc23)cc1 [Compound 6, 4-methyl-N-(5-(pyridin-3-yl)quinolin-8-yl)benzenesulfonamide]"
15.1,,,,,,,"CS(=O)(=O)Nc1ccc(-c2cccnc2)c2cccnc12 [Compound 21, N-(5-(pyridin-3-yl)quinolin-8-yl)methanesulfonamide]"
12.1,,,,,,,"O=S(=O)(Nc1ccc(-c2ccccc2)c2cccnc12)C1CC1 [Compound 16, N-(5-phenylquinolin-8-yl)cyclopropanesulfonamide]"
6.7,,,,,,,"O=S(=O)(Nc1ccc(-c2ccccc2)c2cccnc12)c1cccc(C(F)(F)F)c1 [Compound 18, N-(5-phenylquinolin-8-yl)-3-(trifluoromethyl)benzenesulfonamide]"
,,,,0.84,,,"Cc1ccc(S(=O)(=O)Nc2ccc(Br)c3cccnc23)cc1 [Compound 1, N-(5-bromoquinolin-8-yl)-4-methylbenzenesulfonamide]"
,0.54,,,0.54,1640,2360,"Cc1ccc(S(=O)(=O)Nc2ccc(-c3ccccc3)c3cccnc23)cc1 [Compound 4, 4-methyl-N-(5-phenylquinolin-8-yl)benzenesulfonamide]"
1.67,1.67,,,,1070,5240,"O=S(=O)(Nc1ccc(-c2cccnc2)c2cccnc12)c1cccnc1 [Compound 25, N-(5-(pyridin-3-yl)quinolin-8-yl)pyridine-3-sulfonamide]"
,1.74,6830,6480,1.74,,,"Cc1ccc(S(=O)(=O)Nc2cc(Oc3cccc(C#N)c3)cc3cccnc23)cc1 [Compound 14, N-(6-(3-cyanophenoxy)quinolin-8-yl)-4-methylbenzenesulfonamide]"
8.02,,,,,,,"COc1ccc(S(=O)(=O)Nc2ccc(-c3ccccc3)c3cccnc23)cc1 [Compound 17, 4-methoxy-N-(5-phenylquinolin-8-yl)benzenesulfonamide]"
,3.57,80,4110,3.57,,,"Cc1ccc(S(=O)(=O)Nc2cc(Oc3cc(F)cc(F)c3)cc3cccnc23)cc1 [Compound 12, N-(6-(3,5-difluorophenoxy)quinolin-8-yl)-4-methylbenzenesulfonamide]"

Compound,"IC50 [1, 3] [µM]","IC50 [1, 4] [µM]",IC50 (fibrosarcoma HT1080) [nM],IC50 [2] [nM],"IC50 [1, 5] [µM]","IC50 (fibrosarcoma HT1080; Homo sapiens, HT-1080) [nM]",IC50 ([2]; Homo sapiens) [nM]
4-methoxy-N-(5-(pyridin-3-yl)quinolin-8-yl)benzenesulfonamide [Compound 29],2.45,2.45,1320,3060,,,
4-methoxy-N-(5-(pyridin-4-yl)quinolin-8-yl)benzenesulfonamide [Compound 23],0.58,0.58,440,1240,,,
